Results taken from ChEMBL document CHEMBL1201862, “PubChem BioAssay data set” (2004).
Active and inactive are the calls of the source.

What was measured:
[1] = target: Type-1 angiotensin II receptor (Homo sapiens, UniProt P30556); assay: antagonism of angiotensin II type 1 receptor – cell-based, uHTS hits, selectivity assay for APJ receptor antagonist project, dose response (AID 463214); assay type: functional;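 note: antagonist potency against angiotensin II stimulated AT1 response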
Beta-galactosidase = Beta-galactosidase (Escherichia coli, UniProt Q8VNN2); assay: PubChem AID 485352; assay type: functional
Sequence of Beta-galactosidase (Q8VNN2 whole entry): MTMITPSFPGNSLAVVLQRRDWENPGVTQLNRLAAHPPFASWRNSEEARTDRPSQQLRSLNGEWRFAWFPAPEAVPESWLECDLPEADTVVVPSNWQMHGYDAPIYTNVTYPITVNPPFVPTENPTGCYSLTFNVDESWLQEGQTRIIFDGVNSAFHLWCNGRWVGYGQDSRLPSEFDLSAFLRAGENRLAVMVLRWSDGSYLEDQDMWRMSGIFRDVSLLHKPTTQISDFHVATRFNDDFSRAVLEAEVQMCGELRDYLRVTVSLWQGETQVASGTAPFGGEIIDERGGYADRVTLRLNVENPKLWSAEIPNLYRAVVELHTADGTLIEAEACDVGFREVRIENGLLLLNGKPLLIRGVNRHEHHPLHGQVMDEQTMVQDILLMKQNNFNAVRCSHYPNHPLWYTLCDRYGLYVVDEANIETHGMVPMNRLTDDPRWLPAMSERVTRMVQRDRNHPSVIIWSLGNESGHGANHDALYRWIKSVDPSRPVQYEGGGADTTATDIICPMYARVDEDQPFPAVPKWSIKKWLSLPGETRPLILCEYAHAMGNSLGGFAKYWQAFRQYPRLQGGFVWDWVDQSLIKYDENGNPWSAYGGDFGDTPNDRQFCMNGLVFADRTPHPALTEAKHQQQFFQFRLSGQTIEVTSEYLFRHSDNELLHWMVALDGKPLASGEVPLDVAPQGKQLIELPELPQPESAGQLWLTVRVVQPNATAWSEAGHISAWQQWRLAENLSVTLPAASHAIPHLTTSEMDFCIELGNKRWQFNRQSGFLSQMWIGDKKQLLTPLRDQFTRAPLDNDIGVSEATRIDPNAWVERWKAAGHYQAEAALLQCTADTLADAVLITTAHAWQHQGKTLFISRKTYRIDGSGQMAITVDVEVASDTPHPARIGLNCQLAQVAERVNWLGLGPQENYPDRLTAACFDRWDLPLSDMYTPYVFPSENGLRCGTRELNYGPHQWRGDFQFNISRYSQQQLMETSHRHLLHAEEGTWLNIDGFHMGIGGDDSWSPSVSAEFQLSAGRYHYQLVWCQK

INS1 = assay: INS-1E mitochondrial potential rescue under cytokines – cell-based, JC-1 fluorescence ratio, dry powder, dose response (AID 488931); assay type: functional; details: Rattus norvegicus
[2] = target: T1, Sentrin-specific protease 7 (Homo sapiens, UniProt Q9BQF6); assay type: functional;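 note: Luminescence-based dose-response confirmation of ultra-high-throughput screening hits, measuring inhibition of SENP7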
T1 sequence (Q9BQF6 whole entry): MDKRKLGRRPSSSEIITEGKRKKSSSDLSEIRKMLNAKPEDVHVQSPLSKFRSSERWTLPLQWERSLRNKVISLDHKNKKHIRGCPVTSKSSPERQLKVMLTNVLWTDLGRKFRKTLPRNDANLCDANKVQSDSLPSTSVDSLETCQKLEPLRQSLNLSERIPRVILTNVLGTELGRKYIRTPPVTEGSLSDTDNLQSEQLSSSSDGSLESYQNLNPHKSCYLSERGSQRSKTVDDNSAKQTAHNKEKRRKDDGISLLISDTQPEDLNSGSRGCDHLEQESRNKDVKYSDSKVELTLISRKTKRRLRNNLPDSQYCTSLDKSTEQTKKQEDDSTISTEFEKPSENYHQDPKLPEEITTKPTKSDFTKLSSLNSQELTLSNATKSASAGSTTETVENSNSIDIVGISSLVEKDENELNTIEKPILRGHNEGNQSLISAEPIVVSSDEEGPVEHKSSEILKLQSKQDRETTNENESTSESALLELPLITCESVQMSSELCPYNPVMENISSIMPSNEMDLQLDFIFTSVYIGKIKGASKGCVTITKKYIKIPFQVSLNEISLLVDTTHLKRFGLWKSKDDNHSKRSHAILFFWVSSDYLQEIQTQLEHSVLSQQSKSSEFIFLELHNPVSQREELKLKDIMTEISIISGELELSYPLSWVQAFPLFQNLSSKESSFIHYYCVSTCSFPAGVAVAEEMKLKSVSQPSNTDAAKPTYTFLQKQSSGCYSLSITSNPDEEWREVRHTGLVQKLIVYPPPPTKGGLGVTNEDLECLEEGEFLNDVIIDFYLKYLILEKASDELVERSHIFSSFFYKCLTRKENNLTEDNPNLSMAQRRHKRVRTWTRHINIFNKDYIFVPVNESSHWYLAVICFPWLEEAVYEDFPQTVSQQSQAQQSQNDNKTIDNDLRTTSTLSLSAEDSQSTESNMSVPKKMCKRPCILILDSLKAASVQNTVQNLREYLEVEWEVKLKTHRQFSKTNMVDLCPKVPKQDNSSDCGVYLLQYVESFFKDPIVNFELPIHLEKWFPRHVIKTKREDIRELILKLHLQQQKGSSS

Caspase-3 = target: T2, Caspase-3 (Homo sapiens, UniProt P42574); assay type: functional;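 note: Dose-response selectivity test against caspase-3 for candidate inhibitors of sentrin-specific proteases (SENPs)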
T2 sequence (P42574 whole entry): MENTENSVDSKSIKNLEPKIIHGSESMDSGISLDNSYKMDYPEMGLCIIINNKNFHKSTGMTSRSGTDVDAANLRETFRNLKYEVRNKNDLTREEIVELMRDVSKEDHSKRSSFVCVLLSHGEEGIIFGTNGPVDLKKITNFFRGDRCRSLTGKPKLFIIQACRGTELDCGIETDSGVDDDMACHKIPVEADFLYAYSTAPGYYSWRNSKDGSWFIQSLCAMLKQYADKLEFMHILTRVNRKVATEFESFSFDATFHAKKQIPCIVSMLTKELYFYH

[3] = target: T3, Sentrin-specific protease 8 (Homo sapiens, UniProt Q96LD8); assay type: functional;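 note: luminescence read-out of SENP8 inhibition, dose-response confirmation following an ultra-high-throughput screen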
T3 sequence (Q96LD8 whole entry): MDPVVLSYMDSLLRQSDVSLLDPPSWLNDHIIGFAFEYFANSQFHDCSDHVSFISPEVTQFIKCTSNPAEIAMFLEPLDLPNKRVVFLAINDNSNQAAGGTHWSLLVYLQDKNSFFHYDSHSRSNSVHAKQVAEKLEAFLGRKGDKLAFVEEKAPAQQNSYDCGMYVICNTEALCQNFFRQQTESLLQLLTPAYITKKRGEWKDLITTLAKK

[4] = target: T4, Sentrin-specific protease 6 (Homo sapiens, UniProt Q9GZR1); assay type: functional;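 note: Luminescence-based dose-response confirmatory assay of SENP6 inhibition, following up an ultra-high-throughput screen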
T4 sequence (Q9GZR1 whole entry): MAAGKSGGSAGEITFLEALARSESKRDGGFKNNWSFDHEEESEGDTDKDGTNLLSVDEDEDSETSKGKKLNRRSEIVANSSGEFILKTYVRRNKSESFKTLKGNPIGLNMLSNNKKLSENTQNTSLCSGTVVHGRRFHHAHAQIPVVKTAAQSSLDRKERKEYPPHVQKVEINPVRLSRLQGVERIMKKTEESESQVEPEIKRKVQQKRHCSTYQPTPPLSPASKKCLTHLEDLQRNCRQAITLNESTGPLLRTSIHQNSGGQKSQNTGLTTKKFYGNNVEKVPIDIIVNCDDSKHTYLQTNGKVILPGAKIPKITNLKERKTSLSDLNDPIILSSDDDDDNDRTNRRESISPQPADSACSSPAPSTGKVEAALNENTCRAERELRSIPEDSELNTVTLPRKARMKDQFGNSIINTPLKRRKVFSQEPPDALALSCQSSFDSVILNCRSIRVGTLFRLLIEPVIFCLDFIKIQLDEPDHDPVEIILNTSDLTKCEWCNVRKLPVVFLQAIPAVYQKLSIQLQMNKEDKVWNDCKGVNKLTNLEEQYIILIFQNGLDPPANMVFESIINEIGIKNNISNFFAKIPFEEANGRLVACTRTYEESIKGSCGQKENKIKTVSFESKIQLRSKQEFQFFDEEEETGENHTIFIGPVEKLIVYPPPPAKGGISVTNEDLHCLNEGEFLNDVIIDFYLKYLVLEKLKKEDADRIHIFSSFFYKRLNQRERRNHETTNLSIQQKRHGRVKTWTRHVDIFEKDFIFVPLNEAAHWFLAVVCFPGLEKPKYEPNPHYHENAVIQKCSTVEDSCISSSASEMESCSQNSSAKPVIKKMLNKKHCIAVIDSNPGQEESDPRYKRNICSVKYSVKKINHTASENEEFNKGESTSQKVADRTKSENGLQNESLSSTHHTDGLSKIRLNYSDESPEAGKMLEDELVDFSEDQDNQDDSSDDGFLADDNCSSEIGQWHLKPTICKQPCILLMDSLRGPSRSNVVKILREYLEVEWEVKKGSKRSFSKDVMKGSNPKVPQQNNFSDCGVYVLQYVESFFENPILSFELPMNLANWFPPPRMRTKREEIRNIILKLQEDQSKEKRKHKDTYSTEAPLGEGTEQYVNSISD

[5] = target: T5, Heat shock factor protein 1 (Mus musculus, UniProt P38532); assay: decrease of HSF1-responsive luciferase luminescence – cell-based, NIH3T3, dose retest, confirmation (AID 2382); assay type: functional;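 note: NIH3T3 fibroblasts with HSF1-driven luciferase reporter stressed by proteasome inhibitor MG132; luminescence from HSF1-driven luciferase expression after 8 hours of MG132 stress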
T5 sequence (P38532 whole entry): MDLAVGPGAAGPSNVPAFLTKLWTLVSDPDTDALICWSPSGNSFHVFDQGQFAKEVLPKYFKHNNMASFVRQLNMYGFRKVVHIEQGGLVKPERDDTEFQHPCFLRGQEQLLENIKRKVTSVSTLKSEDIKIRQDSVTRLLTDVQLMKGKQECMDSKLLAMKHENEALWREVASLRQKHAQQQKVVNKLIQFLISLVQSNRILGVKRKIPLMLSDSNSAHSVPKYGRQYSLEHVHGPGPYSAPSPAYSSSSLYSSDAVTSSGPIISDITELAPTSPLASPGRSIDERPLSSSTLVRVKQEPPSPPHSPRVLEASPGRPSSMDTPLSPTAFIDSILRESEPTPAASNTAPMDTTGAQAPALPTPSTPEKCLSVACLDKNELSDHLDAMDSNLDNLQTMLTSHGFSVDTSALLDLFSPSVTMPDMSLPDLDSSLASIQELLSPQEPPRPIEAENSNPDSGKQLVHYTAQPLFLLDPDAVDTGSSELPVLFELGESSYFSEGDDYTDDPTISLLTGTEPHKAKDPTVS

CHO = CHO cell viability loss, potency – luminescence, cytotoxicity control for TLR9-MyD88 binding inhibitor project, dose response (AID 588339); assay type: functional, cell-based, hamster; details: Cricetulus griseus;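 note: CHO cells stably coexpressing TLR9 and MyD88 fusions from primary screen; compound exposure lasted 48 hours before viability readout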
A-375 = assay: proliferation inhibition in MITF-low A375 cells – cell-based, cherry-pick samples, set 2, counter-screen for MITF modulator project, dose response (AID 540335); assay type: functional; details: Homo sapiens
[6] = target: FAD-linked sulfhydryl oxidase ALR (Homo sapiens, UniProt P55789); assay: ALR-catalysed DTT oxidation blockers – biochemical, H2O2 detection, luminescence, cherry-pick, dose response (AID 493248)
Sequence of FAD-linked sulfhydryl oxidase ALR (P55789 whole entry): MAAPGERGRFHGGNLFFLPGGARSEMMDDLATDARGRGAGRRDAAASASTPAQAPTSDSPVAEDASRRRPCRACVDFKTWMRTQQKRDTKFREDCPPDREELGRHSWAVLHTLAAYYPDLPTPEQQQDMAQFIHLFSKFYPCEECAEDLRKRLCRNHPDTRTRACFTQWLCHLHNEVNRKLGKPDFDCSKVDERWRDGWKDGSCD

[7] = target: T6, Histone-lysine N-methyltransferase NSD2 (Homo sapiens, UniProt O96028); assay type: biochemical
T6 sequence (O96028 whole entry): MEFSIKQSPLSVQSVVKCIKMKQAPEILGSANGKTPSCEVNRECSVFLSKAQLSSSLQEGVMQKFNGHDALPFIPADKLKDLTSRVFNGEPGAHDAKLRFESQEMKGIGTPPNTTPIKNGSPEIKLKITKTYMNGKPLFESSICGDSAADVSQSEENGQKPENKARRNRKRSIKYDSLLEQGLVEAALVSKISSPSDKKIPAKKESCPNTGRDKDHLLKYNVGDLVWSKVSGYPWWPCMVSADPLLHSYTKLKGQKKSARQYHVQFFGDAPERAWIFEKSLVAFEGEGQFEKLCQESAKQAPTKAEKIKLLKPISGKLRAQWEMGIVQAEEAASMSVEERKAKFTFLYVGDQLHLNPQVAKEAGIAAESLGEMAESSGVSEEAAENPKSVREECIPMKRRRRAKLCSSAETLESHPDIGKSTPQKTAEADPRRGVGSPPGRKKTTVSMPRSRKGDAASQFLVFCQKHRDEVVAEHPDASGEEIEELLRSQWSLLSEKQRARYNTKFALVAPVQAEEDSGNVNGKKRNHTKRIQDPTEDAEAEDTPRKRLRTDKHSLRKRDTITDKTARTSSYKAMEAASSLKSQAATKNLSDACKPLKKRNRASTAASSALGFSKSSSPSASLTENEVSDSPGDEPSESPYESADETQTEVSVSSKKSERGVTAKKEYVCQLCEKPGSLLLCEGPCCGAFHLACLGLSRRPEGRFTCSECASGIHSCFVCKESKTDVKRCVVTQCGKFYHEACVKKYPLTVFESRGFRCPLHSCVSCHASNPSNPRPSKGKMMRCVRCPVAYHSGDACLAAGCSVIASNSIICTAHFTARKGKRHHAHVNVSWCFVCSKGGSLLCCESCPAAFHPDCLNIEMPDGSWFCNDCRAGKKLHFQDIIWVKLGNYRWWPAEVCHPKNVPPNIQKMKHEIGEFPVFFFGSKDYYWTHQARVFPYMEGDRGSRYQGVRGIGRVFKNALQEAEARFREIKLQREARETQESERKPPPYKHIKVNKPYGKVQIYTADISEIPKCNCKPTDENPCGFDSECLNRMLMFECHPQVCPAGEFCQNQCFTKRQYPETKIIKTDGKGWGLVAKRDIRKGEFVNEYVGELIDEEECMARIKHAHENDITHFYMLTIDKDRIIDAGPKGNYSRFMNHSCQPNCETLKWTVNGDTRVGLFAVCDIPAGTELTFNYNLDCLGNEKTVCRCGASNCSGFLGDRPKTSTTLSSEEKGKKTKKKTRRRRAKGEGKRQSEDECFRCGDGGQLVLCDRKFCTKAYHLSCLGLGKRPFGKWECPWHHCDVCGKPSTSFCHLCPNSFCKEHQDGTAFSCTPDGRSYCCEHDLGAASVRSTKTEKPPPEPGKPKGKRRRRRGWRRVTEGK

[8] = target: T7, Microphthalmia-associated transcription factor (Homo sapiens, UniProt O75030); assay: reducers of TRPM1 reporter luminescence, concentration series – cell-based, SK-MEL-5, cherry-picked, set 3, MITF inhibitor project, dose response (AID 493073); assay type: functional;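 note: SK-MEL-5 melanoma cells with luciferase driven by the MITF target TRPM1 promoter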
T7 sequence (O75030 whole entry): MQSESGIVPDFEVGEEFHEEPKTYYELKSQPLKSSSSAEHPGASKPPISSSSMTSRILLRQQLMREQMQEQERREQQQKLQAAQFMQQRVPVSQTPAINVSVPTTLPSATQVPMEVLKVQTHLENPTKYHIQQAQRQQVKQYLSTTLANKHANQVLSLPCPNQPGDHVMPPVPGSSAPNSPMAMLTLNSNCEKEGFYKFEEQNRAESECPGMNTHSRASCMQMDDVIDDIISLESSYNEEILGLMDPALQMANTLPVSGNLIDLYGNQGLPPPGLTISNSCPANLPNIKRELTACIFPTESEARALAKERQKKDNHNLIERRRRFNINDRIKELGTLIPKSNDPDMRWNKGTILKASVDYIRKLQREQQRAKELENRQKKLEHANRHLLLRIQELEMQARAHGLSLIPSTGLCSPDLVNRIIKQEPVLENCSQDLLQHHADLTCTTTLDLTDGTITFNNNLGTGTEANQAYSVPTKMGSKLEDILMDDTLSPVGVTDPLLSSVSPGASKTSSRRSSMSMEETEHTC

Sequence of Type-1 angiotensin II receptor (P30556 whole entry): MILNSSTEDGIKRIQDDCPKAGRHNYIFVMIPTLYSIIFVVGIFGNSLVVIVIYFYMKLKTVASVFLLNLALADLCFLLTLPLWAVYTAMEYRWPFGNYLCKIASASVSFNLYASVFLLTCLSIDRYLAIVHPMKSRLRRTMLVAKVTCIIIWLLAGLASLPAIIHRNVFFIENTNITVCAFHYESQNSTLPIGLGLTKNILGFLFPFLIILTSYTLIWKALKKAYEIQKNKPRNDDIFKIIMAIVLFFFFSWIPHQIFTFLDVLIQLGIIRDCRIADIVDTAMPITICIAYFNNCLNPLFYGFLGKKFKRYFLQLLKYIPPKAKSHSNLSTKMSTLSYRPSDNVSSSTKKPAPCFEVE

**Q.** How did the IC50 [1] turn out when `Cc1nnsc1C(=O)NNc1ccc(C(C)(C)C)cc1` was run?
**A.** 2.56 µM (active)

**Q.** And the EC50 (Beta-galactosidase)?
**A.** > 40 µM (inactive)

**Q.** `O=S(=O)(N/N=C\c1ccc(-c2ccccc2Cl)o1)c1ccccc1` was tested. Which IC50 [1] did it give?
**A.** > 40 µM (not active)

**Q.** What about the EC50 (Beta-galactosidase) of the same compound?
**A.** > 40 µM (inactive)

**Q.** With `COc1ccc(S(=O)(=O)N(C)C[C@@H]2Oc3c(NC(=O)C4CCCCC4)cccc3C(=O)N([C@@H](C)CO)C[C@H]2C)cc1` as the compound, how does the AC50 (INS1) read?
**A.** 137 µM (active)

**Q.** Which IC50 [2] does the source give for `Cc1nn2cc(-c3ncc(C(F)(F)F)cc3Cl)cnc2c1Br` here?
**A.** 19.4 µM (active)

**Q.** And the IC50 (Caspase-3)?
**A.** 21.5 µM (active)

**Q.** And the IC50 [3]?
**A.** 36.9 µM (active)

**Q.** What about the IC50 [4] of the same compound?
**A.** 44.8 µM (active)

**Q.** For `CC(C)OC(=O)c1sc2nc(-c3ccccc3)ccc2c1N`, which EC50 [5] is on record?
**A.** < 0.16 µM (active)

**Q.** And the IC50 (CHO)?
**A.** > 49.8 µM (inactive)

**Q.** For `Cc1cc(C)cc(N2C(=O)NC(=O)/C(=C\C=C\c3ccco3)C2=O)c1`, which AC50 (A-375) is on record?
**A.** 26.7 µM (active)

**Q.** And the AC50 [6]?
**A.** 0.501 µM (active)

**Q.** And the AC50 [7]?
**A.** 18.1 µM (active)

**Q.** And the AC50 [8]?
**A.** 4.88 µM (active)
